We go through 23 compounds from patent US5420334A, “Inhibitors of farnesyl-protein transferase” (Merck & Co., Inc., priority 1994, dated 1995).

For one assay, the target named is T1, bovine brain FPTase (Bos taurus, UniProt P29702+P49355).
T1 construct: Famesyl-protein transferase (FPTase) from bovine brain; from tissue; host or cells: bovine brain, partially purified (DEAE-Sephacel, N-octyl agarose, mono Q)
As to the kind of experiment: In vitro inhibition of Ras farnesyl-protein transferase (FPTase). The assay is classed as biochemical. The settings on record: Ras-CVLS, [3H]FPP, concentration giving 50% inhibition, read-out: IC50, inhibition of RAS farnesylation. Here is the method: The intrinsic famesyl-protein transferase (FPTase) activity of representative compounds of this invention was measured by the assay as described below:
Famesyl-protein transferase (FPTase) from bovine brain was chromatographed on DEAE-Sephacel (Pharmacia, 0-0.8M NaCl gradient elution), N-octyl agarose (Sigma, 0-0.6M NaCl gradient elution), and a mono Q HPLC column (Pharmacia, 0-0.3M NaCl gradient). Ras-CVLS (Cys-Val-Leu-Ser) at […], […] [^3 H]FPP, and the indicated compounds were incubated with this partially purified enzyme preparation. FPTase inhibition data is a measurement of the ability of the test compound to inhibit Ras farnesylation in vitro.
Famesyl-protein transferase (FPTase) from bovine brain was chromatographed on DEAE-Sephacel (Pharmacia, 0-0.8M NaCl gradient elution), N-octyl agarose (Sigma, 0-0.6M NaCl gradient elution), and a mono Q HPLC column (Pharmacia, 0-0.3M NaCl gradient). Ras-CVLS at 3.5 µM, 0.25 µM [3H]FPP, and the indicated compounds were incubated with either a partially purified bovine enzyme preparation or a recombinant human enzyme preparation. The FPTase data presented below in Table 1 reflects the ability of the test compound to inhibit RAS famesylation in vitro, as described in Pompliano, et al., Biochemistry 31, 3800 (1992).
*(IC50 is the concentration of the test compound which gives 50%
inhibition of bovine brain FPTase under the described assay conditions)

The test system of a further assay is Ras famesylation. Conditions: cited from earlier work.

Molecules are shown by their SMILES. A value given as a limit tells only on which side of the number the result lay.

For orientation: IC50 means the concentration that gives 50% inhibition. In the case of `C/C(=C\Cc1c(O)cc(C)c(C=O)c1O)CC[C@@]1(C)[C@H](C)C(=O)CC[C@@H]1C` [Compound 1, 3-[5-[1(R),2(S),6(S)-trimethyl-5-oxocyclohexyl]-3-methyl-2-pentenyl]-2,4-di hydroxy-6-methylbenzaldehyde], the concentration for half-maximal inhibition (IC50) on bovine brain FPTase turned out to be 0.7 µM.

`CC(=O)O[C@@H]1CC(=O)[C@@H](C)[C@](C)(/C=C/C(C)=C/Cc2c(O)c(Cl)c(C)c(C=O)c2O)[C@H]1C` [Compound 2]: the IC50 on bovine brain FPTase worked out at 2.8 µM.

Regarding `CC(=O)O[C@@H]1CC(=O)[C@@H](C)[C@](C)(/C=C/C(C)=C/Cc2c(O)cc(C)c(C=O)c2O)[C@H]1C` [Compound 3], on bovine brain FPTase, the concentration for half-maximal inhibition (IC50) was 5.6 µM.

Regarding `CC(/C=C/[C@@]1(C)[C@H](C)C(=O)CC[C@@H]1C)=C\Cc1c(O)cc(C)c(C=O)c1O` [Compound 4], the half-maximal inhibitory concentration (IC50) on bovine brain FPTase was determined as 6.5 µM.

Consider `CC(/C=C/[C@@]1(C)[C@H](C)C(=O)C=C[C@@H]1C)=C\Cc1c(O)c(Cl)c(C)c(C=O)c1O` [Compound 5], for which, on bovine brain FPTase, the IC50 stood at 15 µM.

Turning to `C/C(=C\Cc1c(O)cc(C)c(C=O)c1O)[C@H](C[C@@]1(C)[C@H](C)C(=O)CC[C@@H]1C)OC(=O)CC(C)C` [Compound 6, 3-[5-[1(R),2(S),6(S)-trimethyl-5-oxocyclohexyl]-3-methyl-4(S)-[3-methylbutanoyloxy]-2-pentenyl]-2,4-dihydroxy-6-methylbenzaldehyde], the IC50 on bovine brain FPTase is 4.6 µM.

On to `C/C(=C\Cc1c(O)c(Cl)c(C)c(C=O)c1O)[C@H](C[C@@]1(C)[C@H](C)C(=O)CC[C@@H]1C)OC(=O)CC(C)C` [Compound 7], for which the half-maximal inhibitory concentration (IC50) on bovine brain FPTase turned out to be 6.5 µM.

`CCC(=O)O[C@@H](C[C@@]1(C)[C@H](C)C(=O)CC[C@@H]1C)/C(C)=C/Cc1c(O)cc(C)c(C=O)c1O` [Compound 8]: on bovine brain FPTase, the half-maximal inhibitory concentration (IC50) stood at 2.2 µM.

For the compound `CC(=O)O[C@@H](C[C@@]1(C)[C@H](C)C(=O)CC[C@@H]1C)/C(C)=C/Cc1c(O)cc(C)c(C=O)c1O` [Compound 9], the 50% inhibitory concentration (IC50) on bovine brain FPTase was determined as 13 µM.

On to `CC(=O)Oc1cc(C)c(C=O)c(OC(C)=O)c1C/C=C(\C)CC[C@@]1(C)[C@H](C)C(=O)CC[C@@H]1C` [Compound 11], for which the IC50 at bovine brain FPTase is 6.5 µM.

On to `COc1cc(C)c(C=O)c(O)c1C/C=C(C)/C=C/[C@@]1(C)[C@H](C)C(=O)CC[C@@H]1C` [Compound 12], for which the IC50 on bovine brain FPTase stood at 31 µM.

Take `COc1cc(C)c(C=O)c(O)c1C/C=C(\C)CC[C@@]1(C)[C@H](C)C(=O)CC[C@@H]1C` [Compound 13, 3-[5-[1(R),2(S),6(S)-trimethyl-5-oxocyclohexyl]-3-methyl-2-pentenyl]-2-hydroxy-4-methoxy-6-methylbenzaldehyde]: on bovine brain FPTase, the IC50 worked out at 2 µM.

Regarding `Cc1cc(O)c(CCC(C)CC[C@@]2(C)[C@H](C)C(=O)CC[C@@H]2C)c(O)c1C` (some centres unmarked) [Compound 14], on bovine brain FPTase, the half-maximal inhibitory concentration (IC50) was 18.6 µM.

With `C/C(=C\Cc1c(O)cc(C)c(CO)c1O)CC[C@@]1(C)[C@H](C)[C@H](O)CC[C@@H]1C` [Compound 15], on bovine brain FPTase, the half-inhibitory concentration (IC50) was 101 µM.

For `C/C(=C\Cc1c(O)cc(C)c(C)c1O)CC[C@@]1(C)[C@H](C)C(=O)CC[C@@H]1C` [Compound 16], on bovine brain FPTase, the 50% inhibitory concentration (IC50) stood at 30.7 µM.

On to `C/C(=C\Cc1c(O)cc(C)c(C)c1O)CC[C@@]1(C)[C@H](C)[C@H](O)CC[C@@H]1C` [Compound 17], for which the IC50 at bovine brain FPTase is above 140 µM.

Turning to `C/C(=C\Cc1c(O)cc(C)c(CO)c1O)CC[C@@]1(C)[C@H](C)C(=O)CC[C@@H]1C` [Compound 18], on bovine brain FPTase, the half-inhibitory concentration (IC50) worked out at 75 µM.

Take `C/C(=C\Cc1c(O[Si](C)(C)C(C)(C)C)cc(C)c(C=O)c1O)CC[C@@]1(C)[C@H](C)C(=O)CC[C@@H]1C` [Compound 19]: on bovine brain FPTase, the half-inhibitory concentration (IC50) is above 140 µM.

For the compound `COC(=O)c1c(C)cc(O)c(C/C=C(\C)CC[C@@]2(C)[C@H](C)C(=O)CC[C@@H]2C)c1O` [Compound 20], the IC50 on bovine brain FPTase is above 140 µM.

On to `COCOc1cc(C)c(C=O)c(OCOC)c1C/C=C(\C)CC[C@@]1(C)[C@H](C)C(=O)CC[C@@H]1C` [Compound 21], for which, at bovine brain FPTase, the IC50 was above 50 µM.

Regarding `C/C(=C\Cc1c(O)cc(C)cc1O)CC[C@@]1(C)[C@H](C)C(=O)CC[C@@H]1C` [Compound 24], the IC50 on bovine brain FPTase was found to be 20 µM.

As to `CC[C@H](C)C(=O)O[C@H]1CCC=C2C=C[C@H](C)[C@H](CC[C@@H]3C[C@@H](O)CC(=O)O3)[C@H]21` [compactin], the “Inhibition of Ras famesylation in vivo” value with Ras famesylation is “Inhibition of Ras famesylation in vivo has been demonstrated”.

Regarding `CC[C@H](C)C(=O)O[C@H]1C[C@@H](C)C=C2C=C[C@H](C)[C@H](CC[C@@H]3C[C@@H](O)CC(=O)O3)[C@H]21` [lovastatin], the “Inhibition of Ras famesylation in vivo” value in the assay on Ras famesylation is listed as “Inhibition of Ras famesylation in vivo has been demonstrated”.
